Test system: anesthetized dog
Test: Cardiovascular effects following intravenous injection in the anesthetized dog

## CC(Cc1ccccc1)NC(=O)C(N)CCCCN [L-lysine-d-amphetamine, 2,6-diaminohexanoic acid-(1-methyl-2-phenylethyl)-amide]
Iv 1.0 mg/kg, Time 0
  LVP % Change: 0%
  LVP left ventricular pressure: 108 mmHg
  MAP % Change: 0%
  MAP mean arterial pressure: 74 mmHg
  SAP % Change: 0%
  SAP systolic arterial pressure: 105 mmHg
Iv 1.0 mg/kg, Time 5
  DAP % Change: 15%
  DAP diastolic arterial pressure: 63 mmHg
  LVP % Change: 11%
  LVP left ventricular pressure: 120 mmHg
  MAP % Change: 15%
  MAP mean arterial pressure: 85 mmHg
  SAP % Change: 15%
  SAP systolic arterial pressure: 121 mmHg
Iv 1.0 mg/kg, Time 15
  DAP % Change: 33%
  DAP diastolic arterial pressure: 73 mmHg
  LVP % Change: 29%
  LVP left ventricular pressure: 140 mmHg
  MAP % Change: 35%
  MAP mean arterial pressure: 100 mmHg
  SAP % Change: 35%
  SAP systolic arterial pressure: 142 mmHg
Iv 1.0 mg/kg, Time 25
  DAP % Change: 75%
  DAP diastolic arterial pressure: 97 mmHg
  LVP % Change: 50%
  LVP left ventricular pressure: 162 mmHg
  MAP % Change: 68%
  MAP mean arterial pressure: 124 mmHg
  SAP % Change: 55%
  SAP systolic arterial pressure: 163 mmHg
Iv 1.0 mg/kg, Time 30
  DAP % Change: 32%
  DAP diastolic arterial pressure: 73 mmHg
  LVP % Change: 33%
  LVP left ventricular pressure: 144 mmHg
  MAP % Change: 32%
  MAP mean arterial pressure: 98 mmHg
  SAP % Change: 28%
  SAP systolic arterial pressure: 134 mmHg
Iv 5.0 mg/kg, Time 0
  DAP % Change: 0%
  DAP diastolic arterial pressure: 71 mmHg
  LVP % Change: 0%
  LVP left ventricular pressure: 144 mmHg
  MAP % Change: 0%
  MAP mean arterial pressure: 95 mmHg
  SAP % Change: 0%
  SAP systolic arterial pressure: 132 mmHg
Iv 5.0 mg/kg, Time 5
  DAP % Change: 0%
  DAP diastolic arterial pressure: 71 mmHg
  LVP % Change: 5%
  LVP left ventricular pressure: 151 mmHg
  MAP % Change: 4%
  MAP mean arterial pressure: 99 mmHg
  SAP % Change: 7%
  SAP systolic arterial pressure: 142 mmHg
Iv 5.0 mg/kg, Time 15
  DAP % Change: 39%
  DAP diastolic arterial pressure: 98 mmHg
  LVP % Change: 28%
  LVP left ventricular pressure: 184 mmHg
  MAP % Change: 37%
  MAP mean arterial pressure: 130 mmHg
  SAP % Change: 33%
  SAP systolic arterial pressure: 176 mmHg
Iv 5.0 mg/kg, Time 25
  DAP % Change: −3%
  DAP diastolic arterial pressure: 69 mmHg
  LVP % Change: 11%
  LVP left ventricular pressure: 160 mmHg
  MAP % Change: 1%
  MAP mean arterial pressure: 96 mmHg
  SAP % Change: −5%
  SAP systolic arterial pressure: 126 mmHg
Iv 5.0 mg/kg, Time 30
  DAP % Change: −1%
  DAP diastolic arterial pressure: 70 mmHg
  LVP % Change: 13%
  LVP left ventricular pressure: 163 mmHg
  MAP % Change: 4%
  MAP mean arterial pressure: 99 mmHg
  SAP % Change: 0%
  SAP systolic arterial pressure: 132 mmHg

Source: patent US20090181898A1, “ABUSE-RESISTANT A[…]” (SHIRE LLC, priority 2002, published 2009)
